From article PMC6694155, “PTPσ inhibitors promote hematopoietic stem cell regeneration” (Nature Communications, 2019) come the findings set out here.

The subject of experiment [1] is pERK1/2 in BM KSL cells. The experiment can be described thus: phospho-ERK1/2 immunofluorescence microscopy. The experiment is classed as cell-based, mouse. The settings on record: irradiated BM KSL cells. The procedure:
Lab-Tek chamber slides were coated with fibronectin (25 µg/mL, Millipore Sigma #341635). Sorted BM KSL cells (1 × 10^4) were resuspended in 200 µL TSF media and added to each of the pre-coated wells and incubated overnight (37 °C/5% CO2). The next day, cells were serum starved for 30 min and then stimulated with DJ001 (1 µg/mL), EHT1864 (6 µg/mL), or equal volumes of DMSO for 5 min. Cells were washed once with PBS and fixed with 4% PFA for 10 min. Cells were permeabilized with 0.5% Triton/PBS (PRM) for 30 min and then blocked with 5% fetal bovine serum (FBS)/PRM for 1 h. The slide was then incubated with a phospho-ERK1/2 primary antibody (Cell Signaling, #4377, 1:200) for 1 h. The wells were washed three times and then incubated with a donkey anti-rabbit Alexa Fluor 488 secondary antibody (Thermo Fischer, #A21206, 1:200) at a 1:200 concentration for 1 h. The slide was washed three times and mounted with ProLong Gold Antifade Reagent with DAPI. Cells were imaged using a ×63 objective on a Zeiss Axio Imager M2 widefield fluorescence microscope with all microscope settings derived from imaging a secondary only control. Data were analyzed using Fiji (ImageJ). Briefly, the cell outline was identified by threshold levels and the mean fluorescence intensity within the cell area was quantified.

In experiment [2] the test system is CDC42-GTP in BM lin− cells. The experiment can be described thus: G-LISA activation assay: CDC42-GTP. The settings on record: for CDC42-GTP level (G-LISA): Supplementary Figure 7b (right panel). Type of experiment: cell-based, mouse. The procedure: The RAC1-GTP, RHOA-GTP, and CDC42-GTP activation levels in BM lin^− cells were measured using a colorimetric-based RAC1-, RHOA-, and CDC42 G-LISA Activation Assay Kit (Cytoskeleton, Inc.). BM cells from femurs and tibias were isolated from 12-week-old Ptprs^+/+ and Ptprs^−/− mice. Cells were then depleted of lineage-committed cells with Direct Lineage Cell Depletion Kit (Miltenyi Biotec, #130-110-470; 1:5). The BM lin^− cell fraction was then serum starved in Iscove’s modified Dulbecco’s medium (IMDM) and treated with either vehicle (equal amount of DMSO) or 1 μg/mL DJ001 for 10 min at 37 °C. After treatment, cells were washed with ice-cold PBS and then placed in lysis buffer supplemented with protease inhibitor. Lysate concentrations were measured by Pierce^TM BCA Protein Assay Kit (ThermoFisher Scientific). G-LISA was performed according to the manufacturer’s instructions. Briefly, 12.5 μg of lysates was added to a GTP-binding protein pre-coated plate and active RAC1-GTP, RHOA-GTP, or CDC42-GTP levels were measured at 490 nm using a PowerWave XS2 microplate reader (BioTek).

The target in experiment [3] is T1, PTPσ-p250GAP complex in BM KSL cells (Mus musculus, UniProt B0V2N1).
T1 construct: endogenous in cells; host or cells: primary bone marrow KSL (c-kit+ Sca-1+ lin-) cells of C57BL/6 mice
Put plainly: Proximity ligation assay. The experiment is classed as cell-based. The following applies: 1 μg/mL DJ001, 1 h. The procedure:
A PLA assay was performed by using the Duolink In Situ Red Starter Kit (Millipore Sigma) to detect the binding between PTPσ and p250GAP proteins. BM KSL cells from C57BL/6 mice were sorted by fluorescence-activated cell sorting and then plated onto fibronectin pre-coated chamber slides overnight. The next day, cells were treated with 1 μg/mL DJ001 or vehicle (equal volume of DMSO) for 1 h at 37 °C. Cells were then fixed with 4% paraformaldehyde (PFA) for 20 min. The slides were blocked with Duolink blocking solution and incubated with rabbit anti-ARHGAP32 polyclonal antibody (Bioss Antibodies, #bs-9296R, 1:50 dilution) and goat anti-PTPσ (K-19) polyclonal antibody (Santa Cruz Biotechnology, #sc-10873, 1:50) overnight at 4 °C. Cells were imaged using a Leica SP8 Confocal Microscope equipped with a ×63 objective lens. A white light laser set to 580 nm was used to excite dsRed and a UV laser was used to excite 4′,6-diamidino-2-phenylindole (DAPI). Analysis was performed using the spots detection function in IMARIS 9.0.2 (Bitplane).

Several values for one entry are separate records, joined by “and”; a condition that tells them apart may be missing. Equal entries are not always repeated.

T1 sequence (B0V2N1 30-1907, one chain of several): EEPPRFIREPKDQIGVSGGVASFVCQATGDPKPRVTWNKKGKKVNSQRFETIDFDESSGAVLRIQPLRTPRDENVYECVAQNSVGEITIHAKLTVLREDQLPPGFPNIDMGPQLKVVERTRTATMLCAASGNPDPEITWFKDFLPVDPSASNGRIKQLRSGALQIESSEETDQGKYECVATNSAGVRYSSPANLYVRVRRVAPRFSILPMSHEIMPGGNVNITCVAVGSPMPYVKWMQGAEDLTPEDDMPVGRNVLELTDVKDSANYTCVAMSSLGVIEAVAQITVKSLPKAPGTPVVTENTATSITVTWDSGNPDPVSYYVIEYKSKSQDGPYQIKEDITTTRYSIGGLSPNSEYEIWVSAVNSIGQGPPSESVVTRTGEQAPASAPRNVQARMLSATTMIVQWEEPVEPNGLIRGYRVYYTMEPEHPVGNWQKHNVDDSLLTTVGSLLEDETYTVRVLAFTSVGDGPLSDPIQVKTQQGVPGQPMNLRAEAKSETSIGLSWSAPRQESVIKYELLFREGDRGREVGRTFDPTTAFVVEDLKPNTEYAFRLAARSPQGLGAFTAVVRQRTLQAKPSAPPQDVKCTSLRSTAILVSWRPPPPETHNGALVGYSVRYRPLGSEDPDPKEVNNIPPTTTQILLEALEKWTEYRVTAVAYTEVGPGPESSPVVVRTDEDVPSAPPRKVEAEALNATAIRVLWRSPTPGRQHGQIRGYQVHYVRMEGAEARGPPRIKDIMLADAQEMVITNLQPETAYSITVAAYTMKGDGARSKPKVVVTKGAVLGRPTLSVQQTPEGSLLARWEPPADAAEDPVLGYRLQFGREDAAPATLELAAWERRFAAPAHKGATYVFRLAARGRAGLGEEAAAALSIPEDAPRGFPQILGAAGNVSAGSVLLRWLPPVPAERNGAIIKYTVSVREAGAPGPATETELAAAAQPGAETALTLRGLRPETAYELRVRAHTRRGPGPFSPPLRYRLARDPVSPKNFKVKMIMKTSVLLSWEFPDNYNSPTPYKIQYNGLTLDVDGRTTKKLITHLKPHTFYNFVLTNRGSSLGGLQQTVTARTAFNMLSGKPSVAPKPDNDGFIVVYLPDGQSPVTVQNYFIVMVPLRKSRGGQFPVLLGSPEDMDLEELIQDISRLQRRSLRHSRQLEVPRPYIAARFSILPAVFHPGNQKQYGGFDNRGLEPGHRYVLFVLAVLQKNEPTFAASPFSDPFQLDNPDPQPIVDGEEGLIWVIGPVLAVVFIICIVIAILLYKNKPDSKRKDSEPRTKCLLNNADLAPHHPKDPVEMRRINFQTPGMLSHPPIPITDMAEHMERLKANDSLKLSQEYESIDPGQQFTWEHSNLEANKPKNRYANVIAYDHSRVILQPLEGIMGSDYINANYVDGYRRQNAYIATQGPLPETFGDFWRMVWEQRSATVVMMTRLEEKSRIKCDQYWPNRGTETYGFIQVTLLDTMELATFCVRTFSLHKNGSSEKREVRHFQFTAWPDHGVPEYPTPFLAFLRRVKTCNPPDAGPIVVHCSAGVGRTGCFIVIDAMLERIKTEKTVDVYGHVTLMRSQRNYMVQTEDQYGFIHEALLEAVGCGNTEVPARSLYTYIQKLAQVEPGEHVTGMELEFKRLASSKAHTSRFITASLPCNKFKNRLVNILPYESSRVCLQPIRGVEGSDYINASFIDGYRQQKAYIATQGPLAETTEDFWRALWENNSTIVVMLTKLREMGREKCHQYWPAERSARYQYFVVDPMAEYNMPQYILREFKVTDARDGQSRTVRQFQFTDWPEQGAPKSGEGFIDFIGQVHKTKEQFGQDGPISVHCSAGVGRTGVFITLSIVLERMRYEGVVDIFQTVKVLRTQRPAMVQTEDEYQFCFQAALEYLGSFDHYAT

For the molecule `O=C(/C=C\Nc1cccc([N+](=O)[O-])c1)c1ccccc1` [DJ001, (Z)-3-((3-nitrophenyl)amino)-1-phenylprop-2-en-1-one], the ERK1/2 phosphorylation result in experiment [1] is recorded as “induced ERK1/2 phosphorylation”. In addition, the “activation of CDC42” value in experiment [2] (BM lin− cells, 1 μg/mL DJ001, 10 min) is listed as “did not alter the activation”. For the same molecule, the “CDC42-GTP level (G-LISA)” value was 0.2383 and 0.2517 and 0.2371 in experiment [2] (Ptprs+/+ cells); 0.1634 and 0.1869 and 0.1735 in experiment [2] (Ptprs-/- cells). Besides, the “co-localization of PTPσ and p250GAP” value in experiment [3] is reported as “significantly decreased co-localization”.
